Measured values as given in patent WO2014051359A1, “Pharmaceutical composition comprising neferine as active ingredient for preventing or treating hepatoma” (Pukyong National University, priority 2012, dated 2014).

Experiments:
[1] = system: HUVECs; experiment: Tube formation assay (angiogenesis, in vitro); format: cell-based, human; details: for degree of tube formation (total tube length, converted to percent): 18 h (untreated 222)
[2] = system: Hep3B cells transformed with GFP-LC3B plasmid; experiment: Autophagosome formation in GFP-LC3B transformed cells, fluorescence microscopy; format: cell-based; details: 20 μM, over time (6, 12, 18, 24)
[3] = system: Hep3B; experiment: Western blot of Bcl-2 family and apoptotic proteins; format: cell-based; details: 15, 20, 25 μM, 24 h
[4] = system: Hep3B; experiment: Immunofluorescence, p21Waf1/Cip1; format: cell-based; details: 15 μM, 12 h; vs untreated
[5] = system: Hep3B; experiment: Western blot of endoplasmic reticulum chaperone proteins; format: cell-based; details: 20 μM, depending on time
[6] = system: Hep3B; experiment: Immunofluorescence, caspase-12 (endoplasmic reticulum stress); format: cell-based; details: 15 μM, 12 h
[7] = system: Sk-Hep1; experiment: Cell viability assay (WST-1), Sk-Hep1; format: cell-based
[8] = system: Hep3B; experiment: Western blot of cell cycle-related proteins; format: cell-based; details: 15, 20, 25 μM, 24 h
[9] = system: Hep3B; experiment: Cell cycle analysis by flow cytometer (propidium iodide); format: cell-based; details: for sub-G1 cell population: 24 h (untreated 1.35%)
[10] = system: Hep3B; experiment: Wound-healing assay (cell migration); format: cell-based
[11] = system: Hep3B; experiment: DAPI assay, nuclear condensation / apoptosis induction; format: cell-based; details: 20, 25 μM
[12] = Cell viability assay (WST-1), THLE-3; format: cell-based; details: human, thle-3 cells, THLE-3, 30 μM, read-out: survival rate of the cells
[13] = system: THLE-3; experiment: Cell viability assay (WST-1), THLE-3; format: cell-based; details: THLE-3, 5-30 μM, 24 h
[14] = system: Hep3B; experiment: Western blot of LC3B; format: cell-based; details: 15, 20, 25 μM, 12 h; vs untreated
[15] = system: Hep3B; experiment: Cell viability assay (WST-1), Hep3B; format: cell-based; details: 24 h
[16] = system: Hep3B; experiment: Immunofluorescence, cleaved caspase-8 and -3; format: cell-based; details: 15 μM, 12 h; vs untreated

COc1ccc(C[C@@H]2c3cc(Oc4cc(C[C@@H]5c6cc(OC)c(OC)cc6CCN5C)ccc4O)c(OC)cc3CCN2C)cc1 [neferine, 4-[[(1R)-6,7-Dimethoxy-2-methyl-3,4-dihydro-1H-isoquinolin-1-yl]methyl]-2-[[(1R)-6-methoxy-1-[(4-methoxyphenyl)methyl]-2-methyl-3,4-dihydro-1H-isoquinolin-7-yl]oxy]phenol]
degree of tube formation (total tube length, converted to percent) ([1]; 10 μM): 216% | degree of tube formation (total tube length, converted to percent) ([1]; 20 μM): 202% | degree of tube formation (total tube length, converted to percent) ([1]; 30 μM): 146% | formation of cellular vascular structures ([1]; 10, 20, 30 μM, 18 h): suppression of the formation of cellular vascular structures | tube length (px), concentration dependence ([1]; 10, 20, 30 μM, 18 h): tube length (px) is reduced depending on the neferrin concentration | number of autophagosomes in the cytoplasm (GFP-LC3B dots) [2]: 자가포식소체 수가 세포질 내에서 증가 | size and number of vacuoles [2]: 시간 의존적으로 더 크고 많이 증가 | vacuole formation in the cytoplasm [2]: 소체(vacuole) 형성이 발생 | Bak protein expression [3]: significantly increased | Bax protein expression [3]: slightly increased | Bid protein expression [3]: slightly increased | Bim protein expression [3]: slightly increased | Puma protein expression [3]: significantly increased | caspase-3 protein expression [3]: decrease depending on the treatment concentration | cleaved PARP protein expression [3]: markedly increased | cleaved caspase-6 protein expression [3]: markedly increased | expression level of p21 Waf1/Cip1 protein around the nucleus in the cytoplasm [4]: 두드러지게 증대 | Bip protein expression level [5]: significantly up-regulate | PDI protein expression level [5]: significantly up-regulate | calnexin protein expression level [5]: significantly up-regulate | calpain2 protein expression level [5]: significantly up-regulate | caspase-12 protein expression level [5]: significantly up-regulate | expansion of the endoplasmic reticulum (caspase-12 staining) [6]: 소포체의 확장을 관찰 | viability at 30 µM ([7]; Homo sapiens, SK-HEP1, 24 h, read-out: survival rate of the cells): ~90% | cytotoxicity ([7]; Sk-Hep1, 5-30 μM, 24 h): did not show cytotoxicity | CDK4 protein expression [8]: down regulation | E2F-1 protein expression [8]: down regulation | c-Myc protein expression [8]: down regulation | cyclin D1 protein expression [8]: down regulation | cyclin D3 protein expression [8]: down regulation | p21 Waf1/Cip1 protein expression [8]: expression was increased | phosphorylation of cdc2 [8]: dephosphorylation of cdc2 | sub-G1 cell population ([9]; 15 μM): 4.78% | increase of G1/S phase compared to untreated group ([9]; 20 μM, 24 h): approximately 9% | sub-G1 cell population ([9]; 20 μM): 16.01% | sub-G1 cell population (concentration dependence) ([9]; 15, 20, 25 μM, 24 h): sub-G1 cell population increases in proportion to the neferrin treatment concentration | inhibition at 15 µM ([10]; Homo sapiens, Hep3B, 15 μM, 72 h, vs increased migration in untreated group, read-out: reduction of cell coverage area): ~20% | cell migration ([10]; images at 12 h intervals): cell migration was suppressed depending on the neferrin treatment concentration | nuclear membrane changes (shrinkage, blebbing) ([11]; 6 h after treatment, vs untreated): 세포들의 응축(shrinkage) 및 파열(blebbing)과 같은 핵 막 변화가 나타나는 | nuclear condensation (apoptosome formation) ([11]; 24 h after treatment): 핵 응축(apoptosome formation)이 관찰되었다 | viability at 24 h, 30 µM [12]: ~90% | cytotoxicity [13]: did not show cytotoxicity | expression of LC3B around the membrane [14]: 농도 의존적으로 증가 | cell suppression ([15]; 10 μM or more): marked cell suppression | cell viability (concentration dependence) ([15]; 5-30 μM): significant decrease in cell viability depending on the neferrin treatment concentration | viability at 30 µM ([15]; Homo sapiens, read-out: cell viability): < 10% | cleaved caspase-3 expression [16]: markedly expressed | cleaved caspase-8 expression [16]: markedly expressed
